Reference: ChEMBL document CHEMBL5608224, “Novel KRAS Inhibitors for Treating Non-small Cell Lung Cancer” (ACS Med Chem Lett, 2024)

Test: Inhibition of recombinant GMPPNP-loaded KRAS-G12C mutant (unknown origin) /recombinant GST-tagged RAF RBD (unknown origin) complex assessed as disruption preincubated with KRAS G12C for 20 mins followed by RAF addition and measured after 20 mins by HTRF assay
Design: species or system Homo sapiens

Row | Structure (SMILES) | IC50
1 | C#Cc1cccc2cccc(-c3ccc4c(N(C)[C@@H]5CCN(C(=O)/C(F)=C/c6ccccn6)C5)nc(OC[C@@]56CCCN5C[C@H](F)C6)nc4c3F)c12 | 20 nM
2 | CN1CCC[C@H]1COc1nc(N2CCN(C(=O)/C(F)=C/c3nccs3)[C@@H](CC#N)C2)c2ccc(-c3cc(O)cc4ccccc34)c(F)c2n1 | 16 nM

Stronger by IC50, values ahead:

Row | IC50 | Structure (SMILES)
3 | 2 nM | C#Cc1c(F)ccc2cc(O)cc(-c3ccc4c(N5CCN(C(=O)/C(F)=C/c6nccs6)CC5)nc(OC[C@@]56CCCN5C[C@H](F)C6)nc4c3F)c12
4 | 10 nM | CN1CCC[C@H]1COc1nc(N2CCN(C(=O)/C(F)=C/c3ncccn3)[C@@H](CC#N)C2)c2ccc(-c3cc(O)cc4ccccc34)c(F)c2n1
5 | 6.4 nM | C#Cc1c(F)ccc2cc(O)cc(-c3ccc4c(N5CCN(C(=O)/C(F)=C/c6ccccn6)CC5)nc(OC[C@@]56CCCN(C)[C@]5(C)CCC6)nc4c3F)c12
6 | 11 nM | N#CC[C@H]1CN(c2nc(OC[C@@]34CCCN3C[C@H](F)C4)nc3c(F)c(-c4cc(O)cc5ccccc45)ccc23)CCN1C(=O)/C(F)=C/c1ncccn1
